In ChEMBL document CHEMBL3045348, “Thiazoles: having diverse biological activities” (Med Chem Res, 2012) one finds Activity data, which are given here for one molecule.

A short description of this experiment: Antioxidant activity assessed as trolox equivalents of ABTS radical scavenging activity. The format is functional.

On to `COc1ccc(Nc2nc(N)c(C(=O)c3ccccc3)s2)cc1`, for which the Activity is 0.17 µM.
